From ChEMBL document CHEMBL1147621, “The discovery of biaryl acids and amides exhibiting antibacterial activity against Gram-positive bacteria” (2004)
≈ marks a conversion by molar mass, not a printed value. One block for each compound: values may come before it. Calls of active or inactive are those of the source. The calls are words filed in the database; no cut-off is given here.

Legend:
Pseudomonas aeruginosa [1] = assay: Antibacterial activity against Pseudomonas aeruginosa W30298; type: functional, organism-based
[2] = tested on: Streptococcus sp. 'group A'; assay: Antibacterial activity against Grp A Strep T32098; type: functional
Staphylococcus aureus [3] = assay: Antibacterial activity of compound to inhibit the growth of Staphylococcus aureus 8325; type: functional
Staphylococcus aureus [4] = assay: Antibacterial activity against Staphylococcus aureus 8325; type: functional
Enterococcus faecium [5] = assay: Antibacterial activity against Enterococcus faecium F24910; type: functional
Staphylococcus aureus [6] = assay: Antibacterial activity against Staphylococcus aureus F2490; type: functional
Staphylococcus aureus [7] = assay: Antibacterial activity against Staphylococcus aureus W30078c; type: functional
Enterococcus faecium [8] = assay: Antibacterial activity against E. species. T66429; type: functional
Pseudomonas aeruginosa [9] = assay: Antibacterial activity against Pseudomonas aeruginosa W30279; type: functional, organism-based
Escherichia coli = assay: Antibacterial activity against Escherichia coli H28233; type: functional, organism-based
[10] = tested on: Streptococcus sp. 'group A'; assay: Antibacterial activity against Grp A Strep S54408; type: functional
Bacteria [11] = assay: Antibacterial activity of compound to inhibit the growth of Gram-positive bacteria; type: functional
Bacteria [12] = assay: Antibacterial activity of compound to inhibit the growth of Gram-positive bacteria; Range is 8-12 ug/mL; type: functional
Bacteria [13] = assay: Antibacterial activity of compound to inhibit the growth of Gram-positive bacteria; Range is 5-11 ug/mL; type: functional

MIC (Pseudomonas aeruginosa [1]): inactive | MIC [2]: 20 µg/mL (≈ 46.8 µM) | MIC (Staphylococcus aureus [4]): 20 µg/mL (≈ 46.8 µM) | MIC (Enterococcus faecium [5]): 20 µg/mL (≈ 46.8 µM) | MIC (Staphylococcus aureus [6]): 20 µg/mL (≈ 46.8 µM) | MIC (Staphylococcus aureus [7]): 20 µg/mL (≈ 46.8 µM) | MIC (Enterococcus faecium [8]): 20 µg/mL (≈ 46.8 µM) | MIC (Pseudomonas aeruginosa [9]): inactive | MIC (Escherichia coli): inactive | MIC [10]: 10 µg/mL (≈ 23.4 µM)
Structure (SMILES): O=C(N[C@@H](CC1CCCCC1)C(=O)O)c1cccc(-c2ccc(-c3ccccc3)cc2)c1
IC90 (Staphylococcus aureus [3]): 4 µg/mL (≈ 9.36 µM)

Structure (SMILES): COC(=O)[C@H](CC1CCCCC1)NC(=O)c1ccc(Cl)c(-c2ccc(Cl)cc2)c1
IC90 (Bacteria [11]): > 50 µg/mL

MIC (Pseudomonas aeruginosa [1]): inactive | MIC [2]: 20 µg/mL (≈ 47.6 µM) | MIC (Staphylococcus aureus [4]): 15 µg/mL (≈ 35.7 µM) | MIC (Enterococcus faecium [5]): 20 µg/mL (≈ 47.6 µM) | MIC (Staphylococcus aureus [6]): 15 µg/mL (≈ 35.7 µM) | MIC (Staphylococcus aureus [7]): 20 µg/mL (≈ 47.6 µM) | MIC (Enterococcus faecium [8]): 20 µg/mL (≈ 47.6 µM) | MIC (Pseudomonas aeruginosa [9]): inactive | MIC (Escherichia coli): inactive | MIC [10]: 10 µg/mL (≈ 23.8 µM)
Structure (SMILES): O=C(N[C@@H](CC1CCCCC1)C(=O)O)c1ccc(Cl)c(-c2cccc(Cl)c2)c1
IC90 (Staphylococcus aureus [3]): 8 µg/mL (≈ 19 µM)

Structure (SMILES): NC(=O)c1ccc(Cl)c(-c2ccc(Cl)cc2)c1
IC90 (Bacteria [11]): > 50 µg/mL

Structure (SMILES): Cc1ccc(C(=O)N[C@@H](CC2CCCCC2)C(=O)O)cc1-c1ccc(-c2ccccc2)cc1
IC90 (Staphylococcus aureus [3]): 3 µg/mL (≈ 6.79 µM)

Structure (SMILES): O=C(N[C@@H](CC1CCCC1)C(=O)O)c1ccc(Cl)c(-c2ccc(Cl)cc2)c1
IC90 (Bacteria [11]): 18 µg/mL (≈ 44.3 µM)

Structure (SMILES): O=C(N[C@@H](Cc1ccccc1)C(=O)O)c1ccc(Cl)c(-c2ccc(Cl)cc2)c1
IC90 (Bacteria [11]): > 50 µg/mL

Structure (SMILES): Cc1cc(C(=O)N[C@@H](CC2CCCCC2)C(=O)O)ccc1-c1ccc(-c2ccccc2)cc1
IC90 (Staphylococcus aureus [3]): 2 µg/mL (≈ 4.53 µM)

Structure (SMILES): O=C(NC(C(=O)O)c1ccccc1)c1ccc(Cl)c(-c2ccc(-c3ccccc3)cc2)c1 (configuration not stated)
IC90 (Bacteria [11]): 10 µg/mL (≈ 22.6 µM)

Structure (SMILES): NC(=O)[C@H](CC1CCCCC1)NC(=O)c1ccc(Cl)c(-c2ccc(Cl)cc2)c1
IC90 (Bacteria [12]): 12 µg/mL (≈ 28.6 µM)

Structure (SMILES): O=C(N[C@H](CC1CCCCC1)C(=O)O)c1ccc(Cl)c(-c2ccc(Cl)cc2)c1
IC90 (Bacteria [13]): 11 µg/mL (≈ 26.2 µM)

Structure (SMILES): O=C(O)[C@@H]1CCCCN1C(=O)c1ccc(Cl)c(-c2ccc(-c3ccccc3)cc2)c1
IC90 (Bacteria [11]): 25 µg/mL (≈ 59.5 µM)

Structure (SMILES): O=C(O)c1ccc(Cl)c(-c2ccc(Cl)cc2)c1
IC90 (Bacteria [11]): > 50 µg/mL

Structure (SMILES): O=C(N[C@@H](CC1CCNCC1)C(=O)O)c1ccc(Cl)c(-c2ccc(Cl)cc2)c1
IC90 (Bacteria [11]): > 50 µg/mL

MIC (Pseudomonas aeruginosa [1]): inactive | MIC [2]: 20 µg/mL (≈ 47.6 µM) | MIC (Staphylococcus aureus [4]): 20 µg/mL (≈ 47.6 µM) | MIC (Enterococcus faecium [5]): > 20 µg/mL | MIC (Staphylococcus aureus [6]): 20 µg/mL (≈ 47.6 µM) | MIC (Staphylococcus aureus [7]): 20 µg/mL (≈ 47.6 µM) | MIC (Enterococcus faecium [8]): 20 µg/mL (≈ 47.6 µM) | MIC (Pseudomonas aeruginosa [9]): inactive | MIC (Escherichia coli): inactive | MIC [10]: 10 µg/mL (≈ 23.8 µM)
Structure (SMILES): O=C(N[C@@H](CC1CCCCC1)C(=O)O)c1ccc(Cl)c(-c2ccc(Cl)cc2)c1
IC90 (Staphylococcus aureus [3]): 10 µg/mL (≈ 23.8 µM)

Structure (SMILES): C[C@H](NC(=O)c1ccc(Cl)c(-c2ccc(Cl)cc2)c1)C(=O)O
IC90 (Bacteria [11]): > 50 µg/mL

Structure (SMILES): NC(=O)c1ccc(Cl)c(-c2ccc(-c3ccccc3)cc2)c1
IC90 (Bacteria [11]): > 50 µg/mL
